The values that follow come from US20220323406A1, “METHODS AND COMPOSITIONS FOR DIFFERENTIATING STEM CELLS” (Massachusetts Institute of Technology, priority 2019, published 2022).

One test relates to ENR+CD organoids. Description: Primary screen: ATP (CellTiter-Glo 3D, CTG) cell number/viability, 2.5-D 384-well ENR+CD organoids.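 On all read-outs here: compounds given at plating and again on day 3 over a 6-day differentiation from ENR+CV stem-cell-enriched precursors, ATP measured on day 6, plate median as control.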 The note with it: primary screen; for Z.CTG: standard z score. In general terms: ATP-based viability assays read luminescence as a measure of living cells.
Test [1] has as its system ENR+CD organoids (ISC to Paneth cell differentiation). Description: Primary screen: CCh-stimulated lysozyme secretion LYZ.S, 2.5-D 384-well ENR+CD organoid differentiation. It is filed as cell-based, mouse. The note with it: primary screen. The text has this:
(§1) High-throughput screening.

For test [2] the test system is unchanged. Description: Primary screen: basal (non-stimulated) lysozyme secretion LYZ.NS, 2.5-D 384-well ENR+CD organoid differentiation. It is filed as cell-based, mouse. The note with it: primary screen; for Z.LYZ.NS: standard z score.
Source text: as §1

Where a name gives a salt, the structure may show the parent alone.

Regarding `COc1ccc([C@]2(C#N)CC[C@@H](C(=O)O)CC2)cc1OC1CCCC1` [Cilomilast], the Dose.FC.CTG is listed as −0.334 log2 fold change in the test on ENR+CD organoids (dose 0.08 uM), −0.338 log2 fold change in the test on ENR+CD organoids (dose 0.40 uM), −0.235 log2 fold change with ENR+CD organoids (dose 2.00 uM) and −0.192 log2 fold change in the test with ENR+CD organoids (dose 10.00 uM). The Dose.FC.LYZ.S in test [1] (dose 0.08 uM) is listed as 0.115 log2 fold change; in test [1] (dose 0.40 uM), −0.109 log2 fold change; in test [1] (dose 2.00 uM), −0.083 log2 fold change; in test [1] (dose 10.00 uM) it was −0.045 log2 fold change. For the same compound, the Dose.FC.LYZ.NS in test [2] (dose 0.08 uM) was 0.114 log2 fold change; in test [2] (dose 0.40 uM), −0.037 log2 fold change; in test [2] (dose 2.00 uM), −0.010 log2 fold change; in test [2] (dose 10.00 uM), −0.043 log2 fold change. The Z.LYZ.NS was 0.995 in test [2] (dose 0.08 uM), −0.321 in test [2] (dose 0.40 uM), −0.083 in test [2] (dose 2.00 uM) and −0.376 in test [2] (dose 10.00 uM).
As for `C[C@@H](NCCCc1cccc(C(F)(F)F)c1)c1cccc2ccccc12` [Cinacalcet HCl], the Dose.FC.CTG is given as −0.444 log2 fold change with ENR+CD organoids (dose 0.08 uM), −0.298 log2 fold change with ENR+CD organoids (dose 0.40 uM), −0.012 log2 fold change in the test on ENR+CD organoids (dose 2.00 uM) and −0.451 log2 fold change in the test with ENR+CD organoids (dose 10.00 uM). Besides, the Dose.FC.LYZ.S in test [1] (dose 0.08 uM) was −0.084 log2 fold change; in test [1] (dose 0.40 uM), 0.039 log2 fold change; in test [1] (dose 2.00 uM), −0.025 log2 fold change; in test [1] (dose 10.00 uM) it was −0.130 log2 fold change. Moreover, the Dose.FC.LYZ.NS in test [2] (dose 0.08 uM) is on record as −0.062 log2 fold change; in test [2] (dose 0.40 uM), −0.023 log2 fold change; in test [2] (dose 2.00 uM), −0.022 log2 fold change; in test [2] (dose 10.00 uM), −0.091 log2 fold change. Further, the Z.LYZ.NS in test [2] (dose 0.08 uM) is reported as −0.536; in test [2] (dose 0.40 uM), −0.202; in test [2] (dose 2.00 uM) it was −0.189; in test [2] (dose 10.00 uM), −0.790.
On to `CN1CCC[C@@H]1CCO[C@](C)(c1ccccc1)c1ccc(Cl)cc1` [Clemastine Fumarate], for which the Dose.FC.CTG in the test on ENR+CD organoids (dose 0.08 uM) is 0.242 log2 fold change; in the test with ENR+CD organoids (dose 0.40 uM), 0.036 log2 fold change; in the test with ENR+CD organoids (dose 2.00 uM) it was 0.024 log2 fold change; with ENR+CD organoids (dose 10.00 uM), −0.424 log2 fold change. Also, the Z.CTG is 0.578 in the test with ENR+CD organoids (dose 0.08 uM), 0.086 in the test on ENR+CD organoids (dose 0.40 uM), 0.058 with ENR+CD organoids (dose 2.00 uM) and −1.013 with ENR+CD organoids (dose 10.00 uM). Also, the Dose.FC.LYZ.S in test [1] (dose 0.08 uM) is recorded as 0.096 log2 fold change; in test [1] (dose 0.40 uM) it was −0.066 log2 fold change; in test [1] (dose 2.00 uM), −0.048 log2 fold change; in test [1] (dose 10.00 uM) it was 0.001 log2 fold change. The Dose.FC.LYZ.NS was 0.024 log2 fold change in test [2] (dose 0.08 uM), −0.026 log2 fold change in test [2] (dose 0.40 uM), −0.014 log2 fold change in test [2] (dose 2.00 uM) and −0.061 log2 fold change in test [2] (dose 10.00 uM). For the same compound, the Z.LYZ.NS in test [2] (dose 0.08 uM) was 0.210; in test [2] (dose 0.40 uM), −0.227; in test [2] (dose 2.00 uM), −0.124; in test [2] (dose 10.00 uM) it was −0.534.
On to `C=C1C(=O)O[C@@H]2/C=C(\C)CC/C=C(\C)CC[C@@H]12` [Costunolide], for which the Dose.FC.CTG with ENR+CD organoids (dose 0.08 uM) is given as −0.029 log2 fold change; with ENR+CD organoids (dose 0.40 uM) it was 0.121 log2 fold change; with ENR+CD organoids (dose 2.00 uM), 0.050 log2 fold change; with ENR+CD organoids (dose 10.00 uM), 0.008 log2 fold change. Further, the Dose.FC.LYZ.S in test [1] (dose 0.08 uM) is 0.171 log2 fold change; in test [1] (dose 0.40 uM), 0.103 log2 fold change; in test [1] (dose 2.00 uM), −0.006 log2 fold change; in test [1] (dose 10.00 uM), 0.006 log2 fold change. Further, the Dose.FC.LYZ.NS is recorded as 0.131 log2 fold change in test [2] (dose 0.08 uM), 0.067 log2 fold change in test [2] (dose 0.40 uM), −0.018 log2 fold change in test [2] (dose 2.00 uM) and 0.047 log2 fold change in test [2] (dose 10.00 uM). Further, the Z.LYZ.NS is recorded as 1.143 in test [2] (dose 0.08 uM), 0.585 in test [2] (dose 0.40 uM), −0.157 in test [2] (dose 2.00 uM) and 0.408 in test [2] (dose 10.00 uM).
In the case of `CC1(COc2ccc3c(c2)ncn3-c2ccc3cccc(N4CCC(N)CC4)c3n2)COC1` [Crenolanib (CP-868596)], the Dose.FC.CTG in the test on ENR+CD organoids (dose 0.08 uM) was −0.069 log2 fold change; in the test with ENR+CD organoids (dose 0.40 uM), −0.025 log2 fold change; in the test on ENR+CD organoids (dose 2.00 uM), 0.053 log2 fold change; with ENR+CD organoids (dose 10.00 uM), −0.338 log2 fold change. For the same compound, the Z.CTG with ENR+CD organoids (dose 0.08 uM) is given as −0.165; in the test on ENR+CD organoids (dose 0.40 uM), −0.059; in the test with ENR+CD organoids (dose 2.00 uM), 0.127; in the test on ENR+CD organoids (dose 10.00 uM), −0.808. Moreover, the Dose.FC.LYZ.S in test [1] (dose 0.08 uM) is on record as 0.094 log2 fold change; in test [1] (dose 0.40 uM), 0.043 log2 fold change; in test [1] (dose 2.00 uM) it was 0.149 log2 fold change; in test [1] (dose 10.00 uM), −0.292 log2 fold change. Moreover, the Dose.FC.LYZ.NS is 0.121 log2 fold change in test [2] (dose 0.08 uM), 0.051 log2 fold change in test [2] (dose 0.40 uM), 0.122 log2 fold change in test [2] (dose 2.00 uM) and −0.224 log2 fold change in test [2] (dose 10.00 uM). Also, the Z.LYZ.NS in test [2] (dose 0.08 uM) is reported as 1.051; in test [2] (dose 0.40 uM), 0.441; in test [2] (dose 2.00 uM), 1.065; in test [2] (dose 10.00 uM), −1.951.
Turning to `C[C@H]1COC2=C1C(=O)C(=O)c1c2ccc2c1CCCC2(C)C` [Cryptotanshinone], the Dose.FC.CTG with ENR+CD organoids (dose 0.08 uM) was 0.199 log2 fold change; with ENR+CD organoids (dose 0.40 uM), −0.027 log2 fold change; with ENR+CD organoids (dose 2.00 uM) it was −0.184 log2 fold change; in the test with ENR+CD organoids (dose 10.00 uM), −0.541 log2 fold change. For the same compound, the Dose.FC.LYZ.S is 0.156 log2 fold change in test [1] (dose 0.08 uM), −0.105 log2 fold change in test [1] (dose 0.40 uM), −0.288 log2 fold change in test [1] (dose 2.00 uM) and −0.432 log2 fold change in test [1] (dose 10.00 uM). The Dose.FC.LYZ.NS is 0.143 log2 fold change in test [2] (dose 0.08 uM), −0.120 log2 fold change in test [2] (dose 0.40 uM), −0.182 log2 fold change in test [2] (dose 2.00 uM) and −0.288 log2 fold change in test [2] (dose 10.00 uM). Besides, the Z.LYZ.NS in test [2] (dose 0.08 uM) is 1.243; in test [2] (dose 0.40 uM) it was −1.047; in test [2] (dose 2.00 uM) it was −1.585; in test [2] (dose 10.00 uM) it was −2.506.
For the compound `CC(=O)O[C@]1(C(C)=O)CC[C@H]2[C@@H]3C=C(Cl)C4=CC(=O)[C@@H]5C[C@@H]5[C@]4(C)[C@H]3CC[C@@]21C` [Cyproterone Acetate], the Dose.FC.CTG with ENR+CD organoids (dose 0.08 uM) was −0.110 log2 fold change; in the test with ENR+CD organoids (dose 0.40 uM), 0.051 log2 fold change; in the test on ENR+CD organoids (dose 2.00 uM), −0.143 log2 fold change; with ENR+CD organoids (dose 10.00 uM), −0.173 log2 fold change. Besides, the Dose.FC.LYZ.S in test [1] (dose 0.08 uM) is 0.040 log2 fold change; in test [1] (dose 0.40 uM), −0.019 log2 fold change; in test [1] (dose 2.00 uM) it was −0.093 log2 fold change; in test [1] (dose 10.00 uM) it was −0.134 log2 fold change. Further, the Dose.FC.LYZ.NS is reported as −0.026 log2 fold change in test [2] (dose 0.08 uM), −0.074 log2 fold change in test [2] (dose 0.40 uM), −0.055 log2 fold change in test [2] (dose 2.00 uM) and −0.081 log2 fold change in test [2] (dose 10.00 uM). In addition, the Z.LYZ.NS was −0.225 in test [2] (dose 0.08 uM), −0.642 in test [2] (dose 0.40 uM), −0.479 in test [2] (dose 2.00 uM) and −0.702 in test [2] (dose 10.00 uM).
